Laboratory results reported in patent US20240417404A1, “CRYSTALLINE FORMS OF N-[4-[4-(4-MORPHOLINYL)-7H-PYRROLO[2,3-d]PYRIMIDIN-6-YL]PHENYL]-4-[[3(R)-[(1-OXO-2-PROPEN-1-YL)AMINO]-1-[sequence]]METHYL]-2-PYRIDINECARBOXAMIDE AS IRREVERSIBLE INHIBITORS OF MENIN-MLL INTERACTION” (BIOMEA FUSION, INC., priority 2023, published 2024).
Entries after “also recorded” stand apart in the source; their conditions may differ.

Key:
[1] = tested on: Toledo; test: DLBCL cell line proliferation (Cell Titer Glo, four days): Toledo; assay type: cell-based; conditions: DHL, MYC/BCL2
Protocol: (§1) DLBCL cell line TOLEDO was cultured in the presence of Compound A or clinical reversible menin inhibitors for six and fourteen hours. Menin protein expression was reduced up to 60% at 1 μM by Compound A after fourteen hours compared to clinical reversible inhibitors at <20% at similar concentrations. Menin protein expression was measured by the Wes system and analyzed using the Compass software (automated western blotting, Protein Simple). Signal was normalized to GAPDH and referenced to DMSO control (FIG. 36E). DLBCL and MM cell lines were cultured with Compound A, bortezomib (PS-341), or DMSO for four days and cell proliferation was measured by Cell Titer Glo. Ex vivo studies of DLBCL and MM models were conducted by measurement of cell proliferation (Cell Titer Glo) after six days of treatment with Compound A, PS-341, or DMSO control.

[2] = tested on: KRAS and MEN1 expression in MiaPaCa-2 cells; test: RNA-seq gene expression in MiaPaCa-2 cells; assay type: cell-based, human; conditions: 0.5 μM and 1 μM, twenty-four hours
Protocol: MOLM-13 and MiaPaCa-2 cells were incubated with Compound A for twenty-four hours and were analyzed by RNA-seq on an Illumina NextSeq 550 platform. […] Cell viability was measured using CellTiter Glo. Human ex vivo PDX tissue models harboring KRAS mutations were cultured with Compound A and clinical reversible menin inhibitors for six days. Cell viability was measured using CellTiter Glo.

[3] = tested on: Zucker diabetic fatty rats (ZDF rats); test: Glycemic control in Zucker diabetic fatty rats, 16-day dosing plus two-week washout; assay type: in vivo, rat
Protocol: The present examples provides the ability of Compound 10 to restore glycemic control to diabetic Zucker diabetic fatty rats (ZDF rats, genotype ZDF-Lepr^fa/Crl; Charles River). Cornicelli et al., 2005, Charles River.
Control and test compounds were stored at 4° C. and prepared weekly as needed. The vehicle for positive control pioglitazone was 0.25% carboxymethylcellulose and 1% Tween® 80 in reverse osmosis deionized water. The vehicle for Compound 10 was 10% DMSO, 10% Solutol HS 15, and 80% (10% hydroxypropyl-β-cyclodextrin in 50 mM citrate buffer at pH 3.0).
On Day −3, twenty-four ZDF rats (plus eight spare ZDF rats) were measured for body weight and non-fasting glucose. LabDiet 5008 was provided ad libitum throughout the study, except during designated procedures, as was water. In order to minimize the effects of stress on blood glucose and body, all animals including the spares received daily sham doses with phosphate buffered saline pH 7.2 (dose volume 5 mL/kg) via gavage beginning on Study Day −5 to Day −1.
Vehicle, control, and test compound were administered via oral gavage according to the following design on Days 1-16.
On Days −3, 1, 8, and 14 non-fasting blood glucose was measured. On Day 15, an oral glucose tolerance test was administered. The animals were weighed, and the animals were placed in clean cages without food. Access to water was provided throughout the procedure. The animals were fasted for five hours and a blood glucose measurement was determined. The animals were dosed via oral gavage with 2 g/kg glucose (10 mL/kg). Blood glucose was determined via tail snip. The second drop of blood from the animal was placed on a hand-held glucometer (Abbott Alpha Trak) at the following times relative to the glucose dose: zero (just prior to glucose dose), 15, 30, 60, 90, and 120 min. Following the final blood glucose measurement, food was returned to the cages. On Day 17, 4-hour fasting glucose was measured. Serum samples were used to measure insulin by ELISA. Analysis was performed in one to three days of each collections. On Day 17, terminal blood collection was obtained at about 8 mL per animal and measured for blood glucose.
ZDF rats were treated daily with Compound 10, vehicle, or pioglitazone for sixteen days and monitored for an additional two weeks post-treatment until Day 29. STZ rat models were induced through pre-treatment of animals on a high-fat diet with low doses of streptozotocin at Day −14 and Day −7 prior to starting treatment at Day Zero until Day 16. ZDF and STZ rats were monitored for fasting blood glucose levels, oral glucose tolerance test (OGTT), insulin and C-peptide levels, HOMA-IR (Homeostatic Model Assessment of Insulin Resistance), blood lipemic levels, and body weight according to the schematic for each model below. ZDF rats were analyzed for indicated readouts for fifteen days post-treatment for OGTT at Day 29, and serum insulin and C-peptide at Day 31.
ZDF Rat Model—three treatment groups 1. Vehicle; 2. Compound 10 at 175 mg/kg; and 3. Pioglitazone at 30 mg/kg; n=10 per group. Daily dosing zero to sixteen days QD→drug wash out at sixteen to twenty-nine days. Rats were monitored for the following parameters through dosing and wash out phases—body weight, fasting blood sugar, blood insulin, C-peptide, and OGTT.

[4] = tested on: DOHH2; test: DLBCL cell line proliferation (Cell Titer Glo, four days): DOHH2; assay type: cell-based; conditions: DOHH2, DHL, MYC/BCL2
Protocol: as §1

[5] = tested on: OCI-LY7; test: DLBCL cell line proliferation (Cell Titer Glo, four days): OCI-LY7; assay type: cell-based; conditions: OCI-LY7, GCB
Protocol: as §1

[6] = tested on: JJN3; test: MM cell line proliferation (Cell Titer Glo, four days): JJN3; assay type: cell-based; conditions: JJN3, t(14; 16), NRAS Q61K
Protocol: as §1

[7] = tested on: DHL, THL, and DEL DLBCL cell lines; test: DLBCL cell line panel proliferation (Cell Titer Glo, four days); assay type: cell-based
Protocol: (§2) Compound A was tested against a THL cell line (VAL), and a DEL cell line (U2932). An expanded panel of DHL cell lines were tested for sensitivity to Compound A. Ex vivo patient samples of THL and MYC-amplified DLBCL were tested with Compound A. Sensitivity of THL and MYC-driven DLBCL in both in vitro and ex vivo models were compared with clinical reversible menin inhibitors. Compound A was tested against a panel of MM cell lines and ex vivo MM patient samples of p53del, 13qdel, and relapsed/refractory cases.
as §1

[8] = tested on: patient-derived THL and MYC-amplified DLBCL PDX samples; test: Ex vivo DLBCL patient-derived PDX samples (Cell Titer Glo, six days); assay type: cell-based, human; conditions: THL/R-CHOP-refractory and MYC amplification/R-EPOCH refractory clinical profiles
Protocol: as §2, §1

[9] = tested on: SKMM2; test: MM cell line proliferation (Cell Titer Glo, four days): SKMM2; assay type: cell-based; conditions: SKMM2, t(11; 14), TP53
Protocol: as §1

[10] = tested on: Pfeiffer; test: DLBCL cell line proliferation (Cell Titer Glo, four days): Pfeiffer; assay type: cell-based; conditions: GCB
Protocol: as §1

[11] = ZDF rats, 175 mg/kg/day PO QD, compared to vehicle and control

## C=CC(=O)N[C@@H]1CCCN(Cc2ccnc(C(=O)Nc3ccc(-c4cc5c(N6CCOCC6)ncnc5[nH]4)cc3)c2)C1 [Compound A, N-[4-[4-(4-morpholinyl)-7H-pyrrolo[2,3-d]pyrimidin-6-yl]phenyl]-4-[[3(R)-[(1-oxo-2-propen-1-yl)amino]-1-piperidinyl]methyl]-2-pyridinecarboxamide]
[1]
  Average % Max Inhibition by Compound A: 98.8%
[2]
  KRAS and MEN1 expression levels: marked reduction; also recorded: dramatically decreased
[3]; [11]
  glucose, non-fasting and fasting states: significant reduction of glucose
  insulin, non-fasting and fasting states: significant reduction of insulin
[3]; ZDF rats, 175 mg/kg/day PO QD, non-fasting and fasting, vs vehicle, listed as Compound 10, 175 mg/kg/day
  insulin resistance (HOMA-IR): significant reduction of insulin resistance; also recorded: reduced HOMA-IR
[3]; ZDF rats, Day 15, p<0.001
  OGTT AUC reduction: 54%
[3]; ZDF rats, Day 29, after fourteen days of no treatment
  oral glucose tolerance test, glucose control: significant glucose control
[3]; ZDF rats, Day 29, drug washout, ~two weeks after the last dose, p<0.05
  OGTT AUC reduction: 40%
[3]; ZDF rats, after fifteen days of treatment (Day 15)
  oral glucose tolerance test, glucose control: significant glucose control
[3]; ZDF rats, after two weeks of treatment
  reduction in fasting and non-fasting blood glucose levels: ~50%
[3]; ZDF rats, after two weeks of treatment, p<0.05
  serum insulin and C-peptide levels: significantly reduced
[3]; ZDF rats, no therapy for two weeks
  4-hour fasting insulin and glucose after washout: increasing insulin and glucose lowering
[3]; ZDF rats, sixteen days treatment (FIG. 26)
  insulin sensitivity: increases insulin sensitivity
[3]; ZDF rats, two weeks after therapy
  C-peptide: increasing C-peptide
[3]; treated ZDF rats, sixteen days (FIG. 27)
  blood lipemic levels and body weight: significantly reduces blood lipemic levels and reduces body weight
[4]
  Average % Max Inhibition by Compound A: 99.7%
[5]; Homo sapiens, read-out: Average IC50 ± Standard Deviation
  IC50: 650 ± 260 nM
[5]
  Average % Max Inhibition by Compound A: 99.6%
[6]
  Average % Max Inhibition by Compound A: 99.2%
[7]; DHL, THL, and DEL DLBCL cell lines
  cell lethality: > 90%
[7]; VAL, U2932
  growth inhibition of THL and DEL cell line models: complete growth inhibition
[8]
  growth inhibition of ex vivo DLBCL patient samples: complete growth inhibition; also recorded: highly effective
[9]
  Average % Max Inhibition by Compound A: 80.2%
[10]
  Average % Max Inhibition by Compound A: 99.6%
